Where two headings read alike, the source gives them in different places.
Columns and labels:
[1] = tested on: p110α-mutants D603K, D603A, 603DCN_AAA605, D603A/F1016S, L1006R, F1016S, L1006R/F1016S; test: ADP-Glo catalytic activity, mutants in the 1938-binding pocket; type: biochemical, human; conditions: all mutants
Experimental: Expression and purification of mutants resistant to 1938 were performed as follows. Sf9 insect cells (1.5 L) were cultured in Insect-XPRESS with L-Glutamine medium (Lonza BE12-730Q) at 27°C and co-infected with baculovirus encoding the regulatory p85α-subunit [LMB-MRC plasmid OP809] and the catalytic subunit p110α-D603K [LMB-MRC plasmid OP895], D603A [OP900], 603DCN_AAA605 [OP894], D603A/F1016S [OP901], L1006R [OP897], F1016S [OP898], L1006R/F1016S [OP899] at a density of 1.6 × 10^6 cells/ml. The culture was incubated for 47 h after infection, cells were collected, flash-frozen in liquid N2 and stored at -80°C. For purification, cell pellets were resuspended in 50 ml of lysis buffer (20 mM Tris, 150 mM NaCl, 5% glycerol, 1 mM TCEP, pH 8.0) containing EDTA-free Protease inhibitor tablets (1 tablet per 50 ml of solution), 0.5 mM PEFA and 5 μl of Piece® Universal Nuclease For Cell Lysis. The suspension was sonicated for 3 min on ice, with 10 sec on and 10 sec off. […]
For characterisation of the effects of 1938 on in vitro PI3K enzymology, all reactions were performed at room temperature with 384 white-polystyrene plates (Corning #3574). […] Data was expressed as velocity (nmol of ADP generated/nmol of enzyme/sec). […] Luminescence was read using a PHERAstar® plate reader with software version 5.41, and analyses were performed using GraphPad Prism 8/9.

human p110α/p85α (PI3Kα) = biological target: T1, human p110α/p85α (PI3Kα) (Homo sapiens, UniProt P42336); test: ADP-Glo in vitro lipid kinase assay, PI3Kα; type: biochemical
T1 construct: Full-length human p110α was expressed either in a complex with full-length human p85α (for HTS, biochemistry and HDX-MS); 6xHis tag followed by TEV protease site (N); host or cells: Spodoptera frugiperda Sf9, baculovirus
Experimental: Kinase reactions were performed with ADP-Glo kinase assay kit (Promega Corporation). The enzyme, substrate and compounds were diluted in reaction buffer (20 mM HEPES, 50 mM NaCl, 50 mM KCl, 3 mM MgCl2, 1 mM EGTA, 1 mM TCEP, pH 7.4). Final concentrations of PI3Kα and PI3Kδ used were 25 nM and 50 nM for PI3Kβ. Liposomes (5% brain PI(4,5)P2, 20% brain phosphatidylserine, 45% brain phosphatidylethanolamine, 15% brain phosphatidylcholine, 10% cholesterol, 5% sphingomyelin (Avanti Polar Lipids)) were used at a final concentration of 1 mg/ml.
For the HTS, the reaction mixture contained 0.75 μl enzyme, 15 nl compound and/or pY and 0.75 μl of liposome substrate mixed with ATP. […] (GL Biochem, Shanghai Ltd). ATP was used at a final concentration of 500 μM unless otherwise stated. The final DMSO concentration in the assay was 1%. The experiments were performed at room temperature for 3 h using 1536-well white-polystyrene plates (Corning #3729) before addition of 2 μl of ADP-Glo R1 to terminate the reaction. The plate was incubated for 40 min, followed by addition of 4 μl of ADP-Glo R2 and incubated further for 60 min in the dark. Luminescence was read using an EnVision (PerkinElmer) plate reader. All analyses were performed using Genedata Screener.
For re-screening of HTS hits and routine compound profiling, the reaction mixture contained 2 μl PI3K enzyme, 2 μl compound and/or pY and 2 μl of liposome substrate mixed with ATP. ATP was used at a final concentration of 500 μM for PI3Kα and PI3Kβ and at 200 μM for PI3Kδ, unless otherwise stated. The final DMSO concentration in the assay was 1%. The experiments were performed at room temperature for 3 h using 384 white-polystyrene plates (Corning #3824) before addition of 6 μl of ADP-Glo R1 to terminate the reaction. The plate was incubated for 45 min, followed by addition of 12 μl of ADP-Glo R2 and incubated further for 60 min in the dark. Luminescence was read using a Sense (Hidex) plate reader. […] All analyses were performed using GraphPad Prism 7.
For characterisation of the effects of 1938 on in vitro PI3K enzymology, all reactions were performed at room temperature with 384 white-polystyrene plates (Corning #3574). The final DMSO concentration in the assay was between 0.5%-1.8%. The reaction mixture contained 2 μl PI3K enzyme, 2 μl compound and/or pY and 2 μl of liposome substrate mixed with ATP. ATP was used at a final concentration of 200 μM, unless otherwise stated.

T1 sequence (P42336 whole entry): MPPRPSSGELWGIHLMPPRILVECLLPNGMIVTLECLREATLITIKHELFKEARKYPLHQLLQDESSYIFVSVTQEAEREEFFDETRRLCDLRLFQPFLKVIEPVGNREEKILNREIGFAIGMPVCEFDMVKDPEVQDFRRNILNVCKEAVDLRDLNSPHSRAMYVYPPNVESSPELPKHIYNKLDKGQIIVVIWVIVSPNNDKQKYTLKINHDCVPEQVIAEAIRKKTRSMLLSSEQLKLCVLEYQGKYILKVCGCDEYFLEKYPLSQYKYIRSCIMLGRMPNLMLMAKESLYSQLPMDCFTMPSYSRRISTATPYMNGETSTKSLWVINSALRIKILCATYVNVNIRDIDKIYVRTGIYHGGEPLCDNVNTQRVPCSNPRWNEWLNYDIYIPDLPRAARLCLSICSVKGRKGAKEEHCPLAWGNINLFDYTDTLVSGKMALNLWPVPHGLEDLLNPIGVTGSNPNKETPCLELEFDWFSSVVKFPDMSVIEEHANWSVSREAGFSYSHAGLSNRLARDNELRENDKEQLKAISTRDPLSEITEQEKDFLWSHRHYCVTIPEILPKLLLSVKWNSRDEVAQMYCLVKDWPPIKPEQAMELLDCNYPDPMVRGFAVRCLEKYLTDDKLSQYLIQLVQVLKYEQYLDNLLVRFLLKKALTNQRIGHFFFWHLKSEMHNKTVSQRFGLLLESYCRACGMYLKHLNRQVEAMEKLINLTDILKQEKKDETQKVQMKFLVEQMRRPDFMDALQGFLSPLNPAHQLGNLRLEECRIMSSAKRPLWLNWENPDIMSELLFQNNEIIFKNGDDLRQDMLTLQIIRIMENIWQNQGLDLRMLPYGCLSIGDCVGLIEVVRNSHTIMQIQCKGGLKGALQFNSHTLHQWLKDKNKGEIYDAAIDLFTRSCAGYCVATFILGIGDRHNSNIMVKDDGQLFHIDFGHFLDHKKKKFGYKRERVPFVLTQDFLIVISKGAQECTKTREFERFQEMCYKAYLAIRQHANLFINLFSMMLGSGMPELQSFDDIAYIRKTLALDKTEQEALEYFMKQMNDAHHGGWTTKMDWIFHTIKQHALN
T1 sequence (P27986 whole entry partner): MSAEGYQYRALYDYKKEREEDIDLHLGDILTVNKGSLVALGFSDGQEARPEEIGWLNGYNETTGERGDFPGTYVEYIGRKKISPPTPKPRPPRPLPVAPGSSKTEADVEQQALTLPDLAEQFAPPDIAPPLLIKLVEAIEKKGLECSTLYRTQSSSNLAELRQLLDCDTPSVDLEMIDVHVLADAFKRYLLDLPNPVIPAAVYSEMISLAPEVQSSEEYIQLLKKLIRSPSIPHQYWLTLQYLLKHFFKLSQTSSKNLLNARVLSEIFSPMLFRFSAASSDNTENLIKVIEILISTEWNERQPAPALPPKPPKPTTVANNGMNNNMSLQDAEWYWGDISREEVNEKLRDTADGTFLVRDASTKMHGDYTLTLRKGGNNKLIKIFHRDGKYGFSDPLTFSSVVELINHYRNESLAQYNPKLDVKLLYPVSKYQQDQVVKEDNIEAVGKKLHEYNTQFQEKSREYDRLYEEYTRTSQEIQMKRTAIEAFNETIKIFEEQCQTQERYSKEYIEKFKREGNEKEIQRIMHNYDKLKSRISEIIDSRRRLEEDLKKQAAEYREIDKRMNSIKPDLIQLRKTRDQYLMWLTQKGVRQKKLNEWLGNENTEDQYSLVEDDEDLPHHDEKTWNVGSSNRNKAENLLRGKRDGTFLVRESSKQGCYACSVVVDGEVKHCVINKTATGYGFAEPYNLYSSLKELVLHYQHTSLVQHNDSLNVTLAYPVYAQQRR

`CCN1CCN(c2ccc(Nc3cc(Nc4cccc5c4N(C(C)=O)CC5)ccn3)cc2)CC1` [Compound 1938] was tested, and the “activation of 1938-binding pocket p110α-mutants” value [1] was “resistant to activation by 1938”, the “activation of PI3Kα” value (human p110α/p85α (PI3Kα)) was “activates” and the “PI3Kα activation in combination with pY” value (human p110α/p85α (PI3Kα); 1938 with a saturating concentration of pY) was “synergistic PI3Kα activation”. The “Maximum activity relative to 1938” value (human p110α/p85α (PI3Kα); SI Table 3) was 100%, the EC50 (human p110α/p85α (PI3Kα); SI Table 3, 1938 analogues, read-out: EC50) was 58 ± 28 µM and the EC50 (human p110α/p85α (PI3Kα); read-out: EC50 for PI3Kα (in vitro lipid kinase activity)) was ~60 µM.

Reference: article PMC7614683, “A small molecule PI3Kα activator for cardioprotection and neuroregeneration” (Nature, 2023)
